Experiments:
[1] = molecular target: T1, human SIRT3 (Homo sapiens, UniProt Q9NTG7); experiment: Fluorescence polarization assay to identify modulators of SIRT3 activity; type: biochemical; conditions: for EC50: activation of SIRT3 (Table 5), read-out: ED50 (the source's name); for IC50: inhibition of SIRT3 (Table 6)
T1 sequence (Q9NTG7 102-399): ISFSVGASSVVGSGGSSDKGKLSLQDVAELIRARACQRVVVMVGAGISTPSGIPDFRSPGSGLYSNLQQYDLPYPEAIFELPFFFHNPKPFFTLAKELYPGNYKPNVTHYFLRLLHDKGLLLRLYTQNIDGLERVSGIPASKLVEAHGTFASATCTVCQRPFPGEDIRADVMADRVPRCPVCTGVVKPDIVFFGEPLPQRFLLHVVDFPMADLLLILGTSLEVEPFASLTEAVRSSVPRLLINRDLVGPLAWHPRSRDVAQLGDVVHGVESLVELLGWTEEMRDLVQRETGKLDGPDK
Description: A fluorescence polarization assay was used to identify modulators of SIRT3 activity. The same assay may be used to identify modulators of any sirtuin protein. The assay utilizes a peptide substrate based on a fragment of Histone H4, a known sirtuin deacetylation target. The substrate contains a peptide having 14 amino acid residues as follows: Biotin-GASSHSK(Ac)VLK(MR121) (SEQ ID NO: 3) wherein K(Ac) is an acetylated lysine residue. The peptide is labeled with the fluorophore MR121 (excitation 635 nm/emission 680 nm) at the C-terminus and biotin at the N-terminus.
The peptide substrate is exposed to a sirtuin protein in the presence of NAD^+ to allow deacetylation of the substrate and render it sensitive to cleavage by trypsin. Trypsin is then added and the reaction is carried to completion (i.e., the deacetylated substrate is cleaved) releasing the MR121 fragment. Streptavidin is then added to the reaction where it can bind both the uncleaved substrate (i.e., any remaining acetylated substrate) and the non-fluorescent portion of the cleaved peptide substrate (i.e., the biotin containing fragment). The fluorescence polarization signal observed for the full length peptide substrate bound to streptavidin is higher than the fluorescence polarization signal observed for the released MR121 C-terminal fragment. Therefore, the fluorescence polarization obtained is inversely proportional to the level of deacetylation (e.g., the signal is inversely proportional to the activity of the sirtuin protein). Results are read on a microplate fluorescence polarization reader (Molecular Devices Spectramax MD) with appropriate excitation and emission filters.
The fluorescence polarization assays may be conducted as follows: 0.5 μM peptide substrate and 50 μM βNAD^+ is incubated with 2 nM of SIRT3 for 60 minutes at 37° C. in a reaction buffer (25 mM Tris-acetate pH8, 137 mM Na—Ac, 2.7 mM K—Ac, 1 mM Mg—Ac, 0.1% Pluronic F127, 10 mM CaCl2, 1 mM TCEP, 0.025% BSA). Test compounds are solubilized in DMSO and are added to the reaction at 11 concentrations ranging from 0.7 μM to 100 μM. The SIRT3 protein used in the assays corresponded to amino acid residues 102-399 of human SIRT3 with an N-terminal His-tag. The protein was overexpressed in E. coli and purified on a nickel chelate column using standard techniques. After the 60 minute incubation with SIRT3, nicotinamide is added to the reaction to a final concentration of 3 mM to stop the deacetylation reaction and 0.5 μg/mL of trypsin is added to cleave the deacetylated substrate. The reaction is incubated for 30 minutes at 37° C. in the presence of 1 mM streptavidin. Fluorescent polarization is determined at excitation (650 nm) and emissions (680 nm) wavelengths. The level of activity of the sirtuin protein in the presence of the various concentrations of test compound are then determined and may be compared to the level of activity of the sirtuin protein in the absence of the test compound, and/or the level of activity of the sirtuin proteins in the negative control (e.g., level of inhibition) and positive control (e.g., level of activation) described below.
A control for activation of sirtuin activity is conducted using 0.5 μg/mL of sirtuin protein to reach baseline deacetylation of the substrate (e.g., to determine normalized sirtuin activity).

[2] = molecular target: T2, SIRT1 (Homo sapiens, UniProt Q96EB6); experiment: Fluorescence polarization or mass spectrometry based assay to identify modulators of SIRT1 activity; type: biochemical; conditions: activation of SIRT1 (Table 3); read-out: ED50 (the source's name);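 note: deacetylation of a fluorophore-tagged p53-derived acetyl peptide by SIRT1, detected as fluorescence polarization after trypsin cleavage and streptavidin binding, compounds tested at 11 doses from 0.7 to 100 µM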
T2 sequence (Q96EB6 1-747): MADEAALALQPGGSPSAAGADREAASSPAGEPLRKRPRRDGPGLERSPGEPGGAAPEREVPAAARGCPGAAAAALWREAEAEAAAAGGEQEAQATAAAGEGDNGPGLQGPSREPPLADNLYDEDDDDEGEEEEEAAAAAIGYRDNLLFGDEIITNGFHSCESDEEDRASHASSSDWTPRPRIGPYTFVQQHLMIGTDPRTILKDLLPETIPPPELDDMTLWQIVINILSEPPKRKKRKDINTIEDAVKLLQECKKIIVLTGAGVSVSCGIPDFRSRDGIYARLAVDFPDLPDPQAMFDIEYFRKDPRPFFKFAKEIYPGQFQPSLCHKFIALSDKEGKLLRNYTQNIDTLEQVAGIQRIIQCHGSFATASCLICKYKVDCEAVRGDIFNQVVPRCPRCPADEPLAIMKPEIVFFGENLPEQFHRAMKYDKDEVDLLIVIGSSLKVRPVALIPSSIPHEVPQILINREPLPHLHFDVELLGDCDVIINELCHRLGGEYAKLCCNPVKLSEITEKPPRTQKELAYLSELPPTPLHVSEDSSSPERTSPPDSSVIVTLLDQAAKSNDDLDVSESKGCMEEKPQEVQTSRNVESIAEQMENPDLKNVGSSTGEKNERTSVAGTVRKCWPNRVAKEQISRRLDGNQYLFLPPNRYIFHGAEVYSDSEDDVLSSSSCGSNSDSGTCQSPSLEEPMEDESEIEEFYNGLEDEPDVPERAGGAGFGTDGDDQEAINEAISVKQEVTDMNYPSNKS

Row | Structure (SMILES) | EC50 [1] | EC50 [2] | IC50 [1]
1 | Cc1csc(NC(=O)CSCC(=O)O)c1-c1nc2ccccc2s1 [Compound 5] | 101 to 150 µM | < 50 µM | 
2 | Nc1nc2ccc(-c3nc4ccccc4[nH]3)cc2s1 [Compound 14] | 101 to 150 µM | 101 to 150 µM | 
3 | N#Cc1ccc(-c2nc3c(C(=O)NC(CC(=O)O)C4CCCCC4)cccn3c2NCc2ccccc2)cc1 (centres unmarked) [Compound 32] | < 50 µM | 51 to 100 µM | 
4 | CC(=O)Nc1ccc(-c2nc3c(C(=O)NC(CC(=O)O)C4CCCCC4)cccn3c2NCc2ccccc2)cc1 (centres unmarked) [Compound 37] | 101 to 150 µM | 51 to 100 µM | 
5 | CC(NC(=O)c1cccn2c(NCC3CCCO3)c(-c3ccc(N(C)C)cc3)nc12)C(=O)NCCC#N (centres unmarked) [Compound 45] | > 150 µM | 51 to 100 µM | 
6 | COc1cccc(-c2nc3c(C(=O)NC(CC(=O)O)C4CCCCC4)cccn3c2NCc2ccccc2)c1 (centres unmarked) [Compound 69] | 51 to 100 µM |  | 
7 | Cc1cccc(C)c1Nc1c(-c2ccc(C#N)cc2)nc2c(C(=O)NC(CC(=O)O)C3CCCCC3)cccn12 (centres unmarked) [Compound 70] | > 150 µM |  | 
8 | Cc1cccc(C)c1Nc1c(-c2ccc(C#N)cc2)nc2c(C(=O)NC(CC(=O)O)c3cccc([N+](=O)[O-])c3)cccn12 (centres unmarked) [Compound 74] | > 150 µM |  | 
9 | CC(C)(C)Nc1c(-c2ccc(F)cc2)nc2c(C(=O)NC(CC(=O)O)C3CCCCC3)cccn12 (centres unmarked) [Compound 78] | 101 to 150 µM |  | 
10 | O=C(O)CC(NC(=O)c1cccn2c(NCc3ccccc3)c(-c3ccc(F)cc3)nc12)C1CCCCC1 (centres unmarked) [Compound 79] | 51 to 100 µM |  | 
11 | COc1ccc(-c2nc3cc(C(=O)NC(CC(=O)O)C4CCCCC4)ccn3c2NC2CCCCC2)cc1OC (centres unmarked) [Compound 80] | 51 to 100 µM |  | 
12 | Cc1ccc(C(CC(=O)O)NC(=O)c2ccn3c(NC4CCCCC4)c(-c4ccc(C#N)cc4)nc3c2)cc1 (centres unmarked) [Compound 81] | 51 to 100 µM |  | 
13 | Nc1ccc(-c2nc3ccc(-c4nc5ccc(N)cc5[nH]4)cc3[nH]2)cc1 [Compound 83] | > 150 µM |  | 
14 | Nc1ccc(C(=O)Nc2nc3cc4sc(NC(=O)c5ccc(N)cc5)nc4cc3s2)cc1 [Compound 86] |  |  | 51 to 100 µM
15 | Cc1ccccc1C(=O)N1CCN(C(=O)c2cccn3c(NCc4ccccc4)c(C(C)C)nc23)CC1 [Compound 87] |  |  | 101 to 150 µM
16 | CN(C)c1ccc(-c2nc3ccc(C(=O)NCC(=O)NCC4CC4)cn3c2NC2CCCCC2)cc1 [Compound 88] |  |  | < 50 µM
17 | Cc1cc(C(=O)Nc2ccc(-c3nc4ccc(C(=O)NCCCN5CCCC5=O)cn4c3NC3CCCCC3)cc2)no1 [Compound 89] |  |  | 101 to 150 µM

The next lines start with the values.

Row | EC50 [1] | EC50 [2] | IC50 [1] | Structure (SMILES)
18 | > 150 µM | > 150 µM |  | COc1ccc(-c2nc3c(C(=O)NC(CC(=O)O)C4CCCCC4)cccn3c2NC(C)(C)C)cc1[N+](=O)[O-] (centres unmarked) [Compound 29]
19 | 51 to 100 µM | < 50 µM |  | CC(NC(=O)c1cccn2c(NCC3CCCO3)c(-c3ccc(Cl)cc3)nc12)C(=O)NCCC#N (centres unmarked) [Compound 43]
20 | > 150 µM |  |  | COc1ccc(-c2nc3c(C(=O)NC(CC(=O)O)c4cccc(C)c4)cccn3c2Nc2c(C)cccc2C)cc1[N+](=O)[O-] (centres unmarked) [Compound 67]
21 | 51 to 100 µM |  |  | CCCCNc1c(-c2ccc(F)cc2)nc2c(C(=O)NC(CC(=O)O)c3cccc([N+](=O)[O-])c3)cccn12 (centres unmarked) [Compound 71]
22 | 51 to 100 µM |  |  | CCCCNc1c(-c2ccc(C#N)cc2)nc2c(C(=O)NC(CC(=O)O)c3cccc([N+](=O)[O-])c3)cccn12 (centres unmarked) [Compound 72]
23 | 51 to 100 µM |  |  | COc1ccc(-c2nc3c(C(=O)NC(CC(=O)O)c4cccc([N+](=O)[O-])c4)cccn3c2NCc2ccccc2)cc1[N+](=O)[O-] (centres unmarked) [Compound 73]
24 | 51 to 100 µM |  |  | CCCCNc1c(-c2ccc(OC)c([N+](=O)[O-])c2)nc2c(C(=O)NC(C)C(=O)O)cccn12 (centres unmarked) [Compound 75]
25 | < 50 µM |  |  | COc1ccc(-c2nc3c(C(=O)NC(C)C(=O)O)cccn3c2NCc2ccccc2)cc1[N+](=O)[O-] (centres unmarked) [Compound 76]
